Measurements: patent US9796711B2, “Substituted pyrazolo[3,4-b]pyridin-6-carboxylic acids and method of use” (AbbVie S.àr.l., priority 2015, dated 2017)

Tests used:
ΔF508-CFTR [1] = biological target: T1, ΔF508-CFTR (Homo sapiens, UniProt P13569, DEL508-508); assay: CFTR cell surface levels using HRP-tagged ΔF508-CFTR expressing CFBE cells, intrinsic corrector capacity; format: cell-based; settings: for EC50: read-out: EC50
T1 construct: host or cells: CFBE41o-, doxycycline-inducible
Procedure, shortened: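 Here the cells express ΔF508-CFTR with horseradish peroxidase inserted in extracellular loop 4, so only rescued channel at the surface gives luminescent signal. Compounds act on their own, 20 h at the reduced temperature of 33 °C; values are percent activity relative to DMSO and a 3 μM corrector.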

ΔF508-CFTR [2] = biological target: T1, ΔF508-CFTR; assay: CFTR cell surface levels using HRP-tagged ΔF508-CFTR expressing CFBE cells, in the presence of a co-corrector; format: cell-based; settings: HRP-tagged ΔF508-CFTR expressing CFBE cells, in the presence of 3 μM co-corrector; for EC50: read-out: EC50
Procedure, shortened: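 Cells were seeded with 0.5 μg/mL doxycycline and held 68 h at 37 °C. Test compounds plus 3 μM co-corrector (final 0.1% DMSO) were then added for 20 h at 33 °C. Washed cells received HRP substrate, and luminescence was normalized between DMSO and 3 μM co-corrector controls.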

[3] = HRP-tagged ΔF508-CFTR CFBE41o- cells, compounds alone (intrinsic corrector capacity), 20 hours at 33° C., positive control 3 μM corrector
[4] = HRP-tagged ΔF508-CFTR CFBE41o- cells, compounds alone (intrinsic corrector capacity), 20 hours at 33° C.
[5] = HRP-tagged ΔF508-CFTR expressing CFBE cells, intrinsic corrector capacity (no co-corrector), 33° C., 20 hours

T1 sequence (P13569 with tags, fused parts or gaps DEL508-508): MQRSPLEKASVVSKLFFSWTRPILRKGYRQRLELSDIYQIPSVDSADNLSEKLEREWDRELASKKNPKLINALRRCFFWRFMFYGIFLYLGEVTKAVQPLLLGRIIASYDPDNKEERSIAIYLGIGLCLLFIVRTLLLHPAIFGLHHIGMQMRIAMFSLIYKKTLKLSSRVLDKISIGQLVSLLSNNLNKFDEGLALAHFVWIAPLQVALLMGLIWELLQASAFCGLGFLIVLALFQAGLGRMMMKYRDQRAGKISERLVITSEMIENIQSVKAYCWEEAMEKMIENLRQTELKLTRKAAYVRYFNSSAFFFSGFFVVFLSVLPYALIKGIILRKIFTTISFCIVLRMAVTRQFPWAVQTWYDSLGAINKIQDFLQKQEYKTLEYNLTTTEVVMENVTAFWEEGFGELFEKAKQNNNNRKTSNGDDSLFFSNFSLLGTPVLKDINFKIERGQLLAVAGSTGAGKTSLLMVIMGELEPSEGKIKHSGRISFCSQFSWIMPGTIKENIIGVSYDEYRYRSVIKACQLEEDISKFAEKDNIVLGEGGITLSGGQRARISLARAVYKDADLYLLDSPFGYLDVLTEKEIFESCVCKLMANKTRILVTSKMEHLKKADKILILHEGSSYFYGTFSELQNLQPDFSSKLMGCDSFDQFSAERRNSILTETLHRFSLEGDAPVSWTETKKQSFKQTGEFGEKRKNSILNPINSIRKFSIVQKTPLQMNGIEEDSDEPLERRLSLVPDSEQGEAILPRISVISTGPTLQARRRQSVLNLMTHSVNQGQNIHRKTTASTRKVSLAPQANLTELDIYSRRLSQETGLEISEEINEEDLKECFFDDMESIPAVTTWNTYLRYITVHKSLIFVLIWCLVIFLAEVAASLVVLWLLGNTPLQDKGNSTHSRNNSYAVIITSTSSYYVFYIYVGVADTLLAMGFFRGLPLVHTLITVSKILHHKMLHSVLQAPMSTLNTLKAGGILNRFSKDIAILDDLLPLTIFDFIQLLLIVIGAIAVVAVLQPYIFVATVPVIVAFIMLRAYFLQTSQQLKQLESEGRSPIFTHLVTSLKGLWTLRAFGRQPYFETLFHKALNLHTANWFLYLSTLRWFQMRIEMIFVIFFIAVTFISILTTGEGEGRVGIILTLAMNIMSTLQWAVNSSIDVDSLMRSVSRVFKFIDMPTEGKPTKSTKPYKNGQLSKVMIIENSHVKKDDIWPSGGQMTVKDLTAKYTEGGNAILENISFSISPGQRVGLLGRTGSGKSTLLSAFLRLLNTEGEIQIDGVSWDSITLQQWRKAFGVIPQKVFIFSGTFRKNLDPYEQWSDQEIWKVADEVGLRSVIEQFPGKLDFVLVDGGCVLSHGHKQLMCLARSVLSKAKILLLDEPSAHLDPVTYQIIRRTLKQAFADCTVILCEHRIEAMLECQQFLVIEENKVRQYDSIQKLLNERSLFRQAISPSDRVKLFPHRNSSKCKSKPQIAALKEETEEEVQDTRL

SMILES | % Activation (ΔF508-CFTR [1]; [3]) | EC50 (ΔF508-CFTR [1]; [4]) | % Activation (ΔF508-CFTR [2]) | EC50 (ΔF508-CFTR [2]) | % Activation (ΔF508-CFTR [1]; [5]) | EC50 (ΔF508-CFTR [1]; [5])
Cc1nn(-c2ccccc2)c2nc(C(=O)O)cc(-c3ccc(N4CC(C)(C)C4)cc3)c12 [compound 73, 4-[4-(3,3-dimethylazetidin-1-yl)phenyl]-3-methyl-1-phenyl-1H-pyrazolo[3,4-b]pyridine-6-carboxylic acid] | 110.1% | 3170 nM | 303.9% | 3250 nM | – | –
CC(C)c1nn(-c2ccc(F)cc2)c2nc(C(=O)O)cc(N3CCC4(CCN(C)CC4)CC3)c12 [compound 781, 1-(4-fluorophenyl)-4-(9-methyl-3,9-diazaspiro[5.5]undecan-3-yl)-3-(propan-2-yl)-1H-pyrazolo[3,4-b]pyridine-6-carboxylic acid] | – | – | 368.7% | 1560 nM | 154% | 1670 nM
Cc1nn(-c2ccccc2)c2nc(C(=O)O)cc(-c3ccc(N4CC5(COC5)C4)cc3)c12 [compound 126, 3-methyl-4-[4-(2-oxa-6-azaspiro[3.3]heptan-6-yl)phenyl]-1-phenyl-1H-pyrazolo[3,4-b]pyridine-6-carboxylic acid] | 156.45% | 1690 nM | 319.25% | 837 nM | – | –
COCCN(C)c1cc(C(=O)O)nc2c1c(C(C)C)nn2-c1cccc(C)c1 [compound 209, 4-[(2-methoxyethyl)(methyl)amino]-1-(3-methylphenyl)-3-(propan-2-yl)-1H-pyrazolo[3,4-b]pyridine-6-carboxylic acid] | 165.6% | 1360 nM | 411.9% | 787 nM | – | –
CN1CCC[C@@H](Oc2cc(C(=O)O)nc3c2c(C2CCC2)nn3-c2ccccc2)C1 [compound 496, 3-cyclobutyl-4-{[(3R)-1-methylpiperidin-3-yl]oxy}-1-phenyl-1H-pyrazolo[3,4-b]pyridine-6-carboxylic acid] | – | – | 145.5% | 2130 nM | 32.84% | 3340 nM
CC(=O)N1CC[C@H]2CN(c3cc(C(=O)O)nc4c3c(C3CCC3)nn4-c3ccccc3)CC[C@H]21 (single isomer, unassigned) [compound 588] | – | – | 469.3% | 2420 nM | 232.6% | 3330 nM
Cc1nn(-c2ccccc2)c2nc(C(=O)O)cc(N3CC4(CCOCC4)C3)c12 [compound 293, 3-methyl-4-(7-oxa-2-azaspiro[3.5]nonan-2-yl)-1-phenyl-1H-pyrazolo[3,4-b]pyridine-6-carboxylic acid] | 90.275% | 2510 nM | 264.9% | 2510 nM | – | –
Cc1nn(-c2ccccc2)c2nc(C(=O)O)cc(N3CC4CNCCN4C3=O)c12 (centres unmarked) [compound 290, 3-methyl-4-(3-oxohexahydroimidazo[1,5-a]pyrazin-2(3H)-yl)-1-phenyl-1H-pyrazolo[3,4-b]pyridine-6-carboxylic acid] | 12.145% | 7500 nM | 127.35% | 7500 nM | – | –
CC(C)c1nn(-c2cccc(N(C)C)c2)c2nc(C(=O)O)cc(-c3cnc(N4CCOCC4)nc3)c12 [compound 84, 1-[3-(dimethylamino)phenyl]-4-[2-(morpholin-4-yl)pyrimidin-5-yl]-3-(propan-2-yl)-1H-pyrazolo[3,4-b]pyridine-6-carboxylic acid] | 289.83% | 829 nM | 541.12% | 734 nM | – | –
Cc1nn(-c2ccccc2)c2nc(C(=O)O)cc(-c3ccc(N4CC(C)OC(C)C4)cc3)c12 (centres unmarked) [compound 114, 4-[4-(2,6-dimethylmorpholin-4-yl)phenyl]-3-methyl-1-phenyl-1H-pyrazolo[3,4-b]pyridine-6-carboxylic acid] | 251.05% | 806 nM | 460.85% | 1240 nM | – | –
CC(C)N1CCN(C2CCN(c3cc(C(=O)O)nc4c3c(C3CCC3)nn4-c3ccc(F)cc3)CC2)CC1 [compound 879, 3-cyclobutyl-1-(4-fluorophenyl)-4-{4-[4-(propan-2-yl)piperazin-1-yl]piperidin-1-yl}-1H-pyrazolo[3,4-b]pyridine-6-carboxylic acid] | – | – | 446.25% | 196 nM | 279.6% | 355 nM
COC(C)(C1CCN(c2cc(C(=O)O)nc3c2c(C2CCC2)nn3-c2ccccc2)CC1)C(F)(F)F (centres unmarked) [compound 499, 3-cyclobutyl-1-phenyl-4-[4-(1,1,1-trifluoro-2-methoxypropan-2-yl)piperidin-1-yl]-1H-pyrazolo[3,4-b]pyridine-6-carboxylic acid] | – | – | 435.6% | 200 nM | 242.93% | 393 nM
N#CC1CCN(C2CCN(c3cc(C(=O)O)nc4c3c(C3CCC3)nn4-c3ccc(F)cc3)CC2)CC1 [compound 860, 4-(4-cyano[1,4′-bipiperidin]-1′-yl)-3-cyclobutyl-1-(4-fluorophenyl)-1H-pyrazolo[3,4-b]pyridine-6-carboxylic acid] | – | – | 576.25% | 417 nM | 383% | 517 nM
CN1CCN(c2ccc(-c3cc(C(=O)O)nc4c3c(C3CCC3)nn4C3CCCCC3)cn2)CC1 [compound 877, 3-cyclobutyl-1-cyclohexyl-4-[6-(4-methylpiperazin-1-yl)pyridin-3-yl]-1H-pyrazolo[3,4-b]pyridine-6-carboxylic acid] | – | – | 374.57% | 605 nM | 162.65% | 348 nM
CC(C)(C)c1nn(C2CCCCC2)c2nc(C(=O)O)cc(-c3cnc(N4CCOCC4)nc3)c12 [compound 149, 3-tert-butyl-1-cyclohexyl-4-[2-(morpholin-4-yl)pyrimidin-5-yl]-1H-pyrazolo[3,4-b]pyridine-6-carboxylic acid] | 112.95% | 653 nM | 296% | 449 nM | – | –
O=C(O)c1cc(N2CC(N3CCCCC3)C2)c2c(C3CCC3)nn(-c3ccccc3)c2n1 [compound 466, 3-cyclobutyl-1-phenyl-4-[3-(piperidin-1-yl)azetidin-1-yl]-1H-pyrazolo[3,4-b]pyridine-6-carboxylic acid] | – | – | 271.1% | 1290 nM | 116.25% | 2330 nM
CS(=O)(=O)C1CCN(c2cc(C(=O)O)nc3c2c(C2CCC2)nn3-c2ccccc2)CC1 [compound 411, 3-cyclobutyl-4-[4-(methanesulfonyl)piperidin-1-yl]-1-phenyl-1H-pyrazolo[3,4-b]pyridine-6-carboxylic acid] | – | – | 456% | 976 nM | 280.85% | 3340 nM
Cc1nn(-c2ccccc2)c2nc(C(=O)O)cc(-c3ccc(N4CCC4)cc3)c12 [compound 135, 4-[4-(azetidin-1-yl)phenyl]-3-methyl-1-phenyl-1H-pyrazolo[3,4-b]pyridine-6-carboxylic acid] | 165.1% | 2200 nM | 355.55% | 1460 nM | – | –
CC(C)c1nn(-c2ccc(F)cc2)c2nc(C(=O)O)cc(N3CCC4(CCCO4)CC3)c12 [compound 401, 1-(4-fluorophenyl)-4-(1-oxa-8-azaspiro[4.5]decan-8-yl)-3-(propan-2-yl)-1H-pyrazolo[3,4-b]pyridine-6-carboxylic acid] | – | – | 306.07% | 653 nM | 136.97% | 1100 nM
COC[C@@H]1CCN(CC2CCN(c3cc(C(=O)O)nc4c3c(C3CCC3)nn4-c3ccccc3)CC2)C1 [compound 802, 3-cyclobutyl-4-(4-{[(3R)-3-(methoxymethyl)pyrrolidin-1-yl]methyl}piperidin-1-yl)-1-phenyl-1H-pyrazolo[3,4-b]pyridine-6-carboxylic acid] | – | – | 439.7% | 771 nM | 218% | 462 nM
Cc1nn(-c2ccccc2)c2nc(C(=O)O)cc(N3CC4(CCCOC4)C3)c12 [compound 308, 3-methyl-4-(6-oxa-2-azaspiro[3.5]nonan-2-yl)-1-phenyl-1H-pyrazolo[3,4-b]pyridine-6-carboxylic acid] | 59.78% | 2510 nM | 221.85% | 2510 nM | – | –
O=C(O)c1cc(N2CCN(CC3CC3)CC2)c2c(C3CCC3)nn(-c3ccccc3)c2n1 [compound 449, 3-cyclobutyl-4-[4-(cyclopropylmethyl)piperazin-1-yl]-1-phenyl-1H-pyrazolo[3,4-b]pyridine-6-carboxylic acid] | – | – | 298.55% | 918 nM | 139.3% | 1350 nM
CN(C)CCCCOc1cc(C(=O)O)nc2c1c(C1CCC1)nn2-c1ccccc1 [compound 611, 3-cyclobutyl-4-[4-(dimethylamino)butoxy]-1-phenyl-1H-pyrazolo[3,4-b]pyridine-6-carboxylic acid] | – | – | 278.1% | 2930 nM | 104.6% | 3330 nM
